# Data as given in article doi:10.1101/2024.10.28.620768v1 (biorxiv, 2024).
# Target: Cdr1 (Candida albicans, UniProt Q5ANA3)
# Assay: microscale thermophoresis, Alexa Fluor 647-labelled Cdr1, Hill fit
# Format: binding
# Cdr1, sequence (Q5ANA3 whole entry): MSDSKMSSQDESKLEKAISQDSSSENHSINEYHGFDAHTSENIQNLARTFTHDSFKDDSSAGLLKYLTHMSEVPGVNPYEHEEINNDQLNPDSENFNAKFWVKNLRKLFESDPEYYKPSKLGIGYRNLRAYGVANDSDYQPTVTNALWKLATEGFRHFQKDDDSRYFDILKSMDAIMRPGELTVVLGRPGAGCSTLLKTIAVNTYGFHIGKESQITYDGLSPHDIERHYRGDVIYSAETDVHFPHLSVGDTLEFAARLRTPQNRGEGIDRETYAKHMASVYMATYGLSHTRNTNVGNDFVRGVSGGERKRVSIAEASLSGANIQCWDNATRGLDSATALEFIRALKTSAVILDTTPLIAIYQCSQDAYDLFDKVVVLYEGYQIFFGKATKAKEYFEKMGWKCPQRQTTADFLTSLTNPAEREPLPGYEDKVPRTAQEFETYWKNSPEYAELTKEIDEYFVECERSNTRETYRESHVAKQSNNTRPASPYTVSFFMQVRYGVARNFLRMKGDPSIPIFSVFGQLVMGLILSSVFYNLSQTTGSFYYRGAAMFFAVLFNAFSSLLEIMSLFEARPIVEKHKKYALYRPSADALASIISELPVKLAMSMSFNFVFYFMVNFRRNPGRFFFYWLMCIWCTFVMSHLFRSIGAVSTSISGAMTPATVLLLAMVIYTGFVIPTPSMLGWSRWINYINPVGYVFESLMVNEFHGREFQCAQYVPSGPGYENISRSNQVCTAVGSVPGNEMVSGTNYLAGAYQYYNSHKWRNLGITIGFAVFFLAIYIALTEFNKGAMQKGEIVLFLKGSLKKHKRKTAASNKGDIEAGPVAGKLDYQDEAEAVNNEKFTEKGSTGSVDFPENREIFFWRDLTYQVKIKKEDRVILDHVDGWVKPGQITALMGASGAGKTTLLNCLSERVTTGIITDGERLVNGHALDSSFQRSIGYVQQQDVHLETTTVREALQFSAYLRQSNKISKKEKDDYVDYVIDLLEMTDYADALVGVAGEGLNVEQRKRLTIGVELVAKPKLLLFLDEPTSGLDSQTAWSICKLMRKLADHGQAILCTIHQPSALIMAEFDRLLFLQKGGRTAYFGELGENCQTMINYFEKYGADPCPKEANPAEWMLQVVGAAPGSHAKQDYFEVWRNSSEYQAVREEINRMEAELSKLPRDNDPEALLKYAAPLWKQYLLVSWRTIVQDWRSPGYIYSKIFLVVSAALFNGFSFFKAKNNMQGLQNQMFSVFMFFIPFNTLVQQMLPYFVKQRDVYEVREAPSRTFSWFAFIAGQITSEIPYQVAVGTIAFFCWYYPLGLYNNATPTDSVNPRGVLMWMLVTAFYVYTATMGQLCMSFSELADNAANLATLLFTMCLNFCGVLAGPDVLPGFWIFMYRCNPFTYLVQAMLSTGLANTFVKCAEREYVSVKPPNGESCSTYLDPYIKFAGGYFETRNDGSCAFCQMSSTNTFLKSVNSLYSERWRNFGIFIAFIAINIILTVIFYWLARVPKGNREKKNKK
row,Kd,Compound
1,59.8 ± 7.1 µM,CCN=c1cc2oc3cc(NCC)c(C)cc3c(-c3ccccc3C(=O)OCC)c-2cc1C [Rhodamine 6G]
2,32.8 ± 8.2 µM,O=C1OC2(c3cc(F)c(O)cc3Oc3cc(O)c(F)cc32)c2ccccc21 [Oregon Green 488]
